Each block holds one molecule with its values, some of them ahead of it.
Experiments:
[1] = Retention time of the compound by isocratic elution based HPLC method; format: physicochemical
[2] = Retention time of the compound by gradient elution based HPLC method; format: physicochemical
Enterococcus sp. [3] = test: microbe, parasite or virus in culture; format: functional; details: J 14365/08, 48 h
Description: Antibacterial activity against Enterococcus sp. J 14365/08 after 48 hrs by microdilution broth method

Escherichia coli [4] = test: microbe, parasite or virus in culture; format: functional; details: CCM 4517, 48 h
Description: Antibacterial activity against Escherichia coli CCM 4517 after 48 hrs by microdilution broth method

Candida tropicalis [5] = test: Fungicidal activity against Candida tropicalis 156 after 48 hrs by modified standard CSLI M27-A2 method; format: functional; details: Candida tropicalis, 156, 48 h
Enterococcus sp. [6] = test: microbe, parasite or virus in culture; format: functional; details: J 14365/08, 24 h
Description: Antibacterial activity against Enterococcus sp. J 14365/08 after 24 hrs by microdilution broth method

Pichia kudriavzevii [7] = test: Fungicidal activity against Candida krusei E28 after 48 hrs by modified standard CSLI M27-A2 method; format: functional; details: E28, 48 h
[8] = tested on: Trichophyton mentagrophytes; test: microbe, parasite or virus in culture; format: functional; details: Trichophyton mentagrophytes, 445, 120 h
Description: Antifungal activity against Trichophyton mentagrophytes 445 after 120 hrs by modified standard CSLI M27-A2 method

Nakaseomyces glabratus [9] = test: Antifungal activity against Candida glabrata 20/I after 48 hrs by modified standard CSLI M27-A2 method; format: functional
Klebsiella pneumoniae [10] = test: microbe, parasite or virus in culture; format: functional; details: D 11750/08, 48 h
Description: Antibacterial activity against Klebsiella pneumoniae D 11750/08 after 48 hrs by microdilution broth method

[11] = Cytotoxicity against CHOK1 cells after 24 hrs by MTT assay; format: ADME, cell-based; details: Cricetulus griseus, CHO-K1, 24 h
Trichosporon asahii [12] = test: microbe, parasite or virus in culture; format: functional; details: Trichosporon asahii, 1188, 24 h
Description: Antifungal activity against Trichosporon asahii 1188 after 24 hrs by modified standard CSLI M27-A2 method

Aspergillus fumigatus [13] = test: microbe, parasite or virus in culture; format: functional; details: Aspergillus fumigatus, 231, 24 h
Description: Antifungal activity against Aspergillus fumigatus 231 after 24 hrs by modified standard CSLI M27-A2 method

Klebsiella pneumoniae [14] = test: microbe, parasite or virus in culture; format: functional; details: J 14368/08, 24 h
Description: Antibacterial activity against Klebsiella pneumoniae J 14368/08 after 24 hrs by microdilution broth method

Staphylococcus aureus [15] = test: microbe, parasite or virus in culture; format: functional; details: H 5996/08, 48 h
Description: Antibacterial activity against Staphylococcus aureus H 5996/08 after 48 hrs by microdilution broth method

Staphylococcus aureus [16] = test: microbe, parasite or virus in culture; format: functional; details: H 5996/08, 24 h
Description: Antibacterial activity against Staphylococcus aureus H 5996/08 after 24 hrs by microdilution broth method

Candida tropicalis [17] = test: microbe, parasite or virus in culture; format: functional; details: Candida tropicalis, 156, 48 h
Description: Antifungal activity against Candida tropicalis 156 after 48 hrs by modified standard CSLI M27-A2 method

Klebsiella pneumoniae [18] = test: microbe, parasite or virus in culture; format: functional; details: J 14368/08, 48 h
Description: Antibacterial activity against Klebsiella pneumoniae J 14368/08 after 48 hrs by microdilution broth method

[19] = tested on: Trichophyton mentagrophytes; test: Fungicidal activity against Trichophyton mentagrophytes 445 after 120 hrs by modified standard CSLI M27-A2 method; format: functional; details: Trichophyton mentagrophytes, 445, 120 h
Staphylococcus aureus [20] = test: Bactericidal activity against Staphylococcus aureus H 5996/08 after 48 hrs by microdilution broth method; format: functional; details: H 5996/08, 48 h, read-out: MBC>99.9
Aspergillus fumigatus [21] = test: Fungicidal activity against Aspergillus fumigatus 231 after 48 hrs by modified standard CSLI M27-A2 method; format: functional; details: Aspergillus fumigatus, 231, 48 h
Staphylococcus aureus [22] = test: microbe, parasite or virus in culture; format: functional; details: CCM 4516/08, 48 h
Description: Antibacterial activity against Staphylococcus aureus CCM 4516/08 after 48 hrs by microdilution broth method

Candida albicans [23] = test: microbe, parasite or virus in culture; format: functional; details: ATCC 44859, 24 h
Description: Antifungal activity against Candida albicans ATCC 44859 after 24 hrs by modified standard CSLI M27-A2 method

Klebsiella pneumoniae [24] = test: microbe, parasite or virus in culture; format: functional; details: D 11750/08, 24 h
Description: Antibacterial activity against Klebsiella pneumoniae D 11750/08 after 24 hrs by microdilution broth method

Lichtheimia corymbifera [25] = test: microbe, parasite or virus in culture; format: functional; details: Lichtheimia corymbifera, 272, 48 h
Description: Antifungal activity against Absidia corymbifera 272 after 48 hrs by modified standard CSLI M27-A2 method

Lichtheimia corymbifera [26] = test: Fungicidal activity against Absidia corymbifera 272 after 48 hrs by modified standard CSLI M27-A2 method; format: functional; details: Lichtheimia corymbifera, 272, 48 h
Klebsiella pneumoniae [27] = test: Bactericidal activity against Klebsiella pneumoniae D 11750/08 after 24 hrs by microdilution broth method; format: functional; details: D 11750/08, 24 h, read-out: MBC>99.9
Pseudomonas aeruginosa [28] = test: Bactericidal activity against Pseudomonas aeruginosa CCM 1961 after 120 hrs by microdilution broth method; format: functional; details: CCM 1961, 120 h, read-out: MBC>99.9
Candida tropicalis [29] = test: microbe, parasite or virus in culture; format: functional; details: Candida tropicalis, 156, 24 h
Description: Antifungal activity against Candida tropicalis 156 after 24 hrs by modified standard CSLI M27-A2 method

Pseudomonas aeruginosa [30] = test: microbe, parasite or virus in culture; format: functional; details: CCM 1961, 120 h
Description: Antibacterial activity against Pseudomonas aeruginosa CCM 1961 after 120 hrs by microdilution broth method

Escherichia coli [31] = test: Bactericidal activity against Escherichia coli CCM 4517 after 48 hrs by microdilution broth method; format: functional; details: CCM 4517, 48 h, read-out: MBC>99.9
Escherichia coli [32] = test: microbe, parasite or virus in culture; format: functional; details: CCM 4517, 24 h
Description: Antibacterial activity against Escherichia coli CCM 4517 after 24 hrs by microdilution broth method

Lichtheimia corymbifera [33] = test: microbe, parasite or virus in culture; format: functional; details: Lichtheimia corymbifera, 272, 24 h
Description: Antifungal activity against Absidia corymbifera 272 after 24 hrs by modified standard CSLI M27-A2 method

Trichosporon asahii [34] = test: Fungicidal activity against Trichosporon asahii 1188 after 48 hrs by modified standard CSLI M27-A2 method; format: functional; details: Trichosporon asahii, 1188, 48 h
[35] = tested on: Trichophyton mentagrophytes; test: microbe, parasite or virus in culture; format: functional; details: Trichophyton mentagrophytes, 445, 72 h
Description: Antifungal activity against Trichophyton mentagrophytes 445 after 72 hrs by modified standard CSLI M27-A2 method

Nakaseomyces glabratus [36] = test: Antifungal activity against Candida glabrata 20/I after 24 hrs by modified standard CSLI M27-A2 method; format: functional
Enterococcus sp. [37] = test: Bactericidal activity against Enterococcus sp. J 14365/08 after 48 hrs by microdilution broth method; format: functional; details: J 14365/08, 48 h, read-out: MBC>99.9
Pichia kudriavzevii [38] = test: Antifungal activity against Candida krusei E28 after 24 hrs by modified standard CSLI M27-A2 method; format: functional; details: E28, 24 h
Trichosporon asahii [39] = test: microbe, parasite or virus in culture; format: functional; details: Trichosporon asahii, 1188, 48 h
Description: Antifungal activity against Trichosporon asahii 1188 after 48 hrs by modified standard CSLI M27-A2 method

Staphylococcus aureus [40] = test: Bactericidal activity against Staphylococcus aureus CCM 4516/08 after 48 hrs by microdilution broth method; format: functional; details: CCM 4516/08, 48 h, read-out: MBC>99.9
Pichia kudriavzevii [41] = test: Antifungal activity against Candida krusei E28 after 48 hrs by modified standard CSLI M27-A2 method; format: functional; details: E28, 48 h
[42] = tested on: Staphylococcus epidermidis; test: microbe, parasite or virus in culture; format: functional; details: H 6966/08, 24 h
Description: Antibacterial activity against Staphylococcus epidermidis H 6966/08 after 24 hrs by microdilution broth method

Pseudomonas aeruginosa [43] = test: microbe, parasite or virus in culture; format: functional; details: CCM 1961, 72 h
Description: Antibacterial activity against Pseudomonas aeruginosa CCM 1961 after 72 hrs by microdilution broth method

[44] = tested on: Staphylococcus epidermidis; test: Bactericidal activity against Staphylococcus epidermidis H 6966/08 after 48 hrs by microdilution broth method; format: functional; details: H 6966/08, 48 h, read-out: MBC>99.9
Candida albicans [45] = test: Fungicidal activity against Candida albicans ATCC 44859 after 48 hrs by modified standard CSLI M27-A2 method; format: functional; details: ATCC 44859, 48 h
Staphylococcus aureus [46] = test: microbe, parasite or virus in culture; format: functional; details: CCM 4516/08, 24 h
Description: Antibacterial activity against Staphylococcus aureus CCM 4516/08 after 24 hrs by microdilution broth method

Nakaseomyces glabratus [47] = test: Fungicidal activity against Candida glabrata 20/I after 48 hrs by modified standard CSLI M27-A2 method; format: functional
Klebsiella pneumoniae [48] = test: Bactericidal activity against Klebsiella pneumoniae J 14368/08 after 48 hrs by microdilution broth method; format: functional; details: J 14368/08, 48 h, read-out: MBC>99.9
Candida albicans [49] = test: microbe, parasite or virus in culture; format: functional; details: ATCC 44859, 48 h
Description: Antifungal activity against Candida albicans ATCC 44859 after 48 hrs by modified standard CSLI M27-A2 method

[50] = tested on: Staphylococcus epidermidis; test: microbe, parasite or virus in culture; format: functional; details: H 6966/08, 48 h
Description: Antibacterial activity against Staphylococcus epidermidis H 6966/08 after 48 hrs by microdilution broth method

Aspergillus fumigatus [51] = test: microbe, parasite or virus in culture; format: functional; details: Aspergillus fumigatus, 231, 48 h
Description: Antifungal activity against Aspergillus fumigatus 231 after 48 hrs by modified standard CSLI M27-A2 method

Retention_time [1]: 0.65 min
Retention_time [2]: 8.64 min
SMILES: CCCCCCCCCC[n+]1cccc2cc(O)ccc21.[Br-]

SMILES: CCCCCCCCCCCC[n+]1cccc2cc(O)ccc21.[Br-]
MIC95 (Enterococcus sp. [3]): 1.95 µM
MIC95 (Escherichia coli [4]): 1.95 µM
MFC (Candida tropicalis [5]): 1.95 µM
MIC95 (Enterococcus sp. [6]): 0.98 µM
MFC (Pichia kudriavzevii [7]): 1.95 µM
MIC [8]: 0.98 µM
MIC (Nakaseomyces glabratus [9]): 1.95 µM
MIC95 (Klebsiella pneumoniae [10]): 1.95 µM
IC50 [11]: 50 µM
MIC (Trichosporon asahii [12]): 0.98 µM
MIC (Aspergillus fumigatus [13]): 1.95 µM
MIC95 (Klebsiella pneumoniae [14]): 3.91 µM
MIC95 (Staphylococcus aureus [15]): 1.95 µM
MIC95 (Staphylococcus aureus [16]): 0.49 µM
MIC (Candida tropicalis [17]): 0.98 µM
MIC95 (Klebsiella pneumoniae [18]): 3.91 µM
MFC [19]: 0.98 µM
MBC (Staphylococcus aureus [20]): 7.81 µM
MFC (Aspergillus fumigatus [21]): 7.81 µM
MIC95 (Staphylococcus aureus [22]): 1.95 µM
MIC (Candida albicans [23]): 0.98 µM
Retention_time [1]: 0.95 min
MIC95 (Klebsiella pneumoniae [24]): 1.95 µM
MIC (Lichtheimia corymbifera [25]): 15.6 µM
MFC (Lichtheimia corymbifera [26]): 15.6 µM
MBC (Klebsiella pneumoniae [27]): 1.95 µM
MBC (Pseudomonas aeruginosa [28]): 7.81 µM
Retention_time [2]: 9.34 min
MIC (Candida tropicalis [29]): 0.98 µM
MIC95 (Pseudomonas aeruginosa [30]): 7.81 µM
MBC (Escherichia coli [31]): 1.95 µM
MIC95 (Escherichia coli [32]): 1.95 µM
MIC (Lichtheimia corymbifera [33]): 3.91 µM
MFC (Trichosporon asahii [34]): 1.95 µM
MIC [35]: 0.49 µM
MIC (Nakaseomyces glabratus [36]): 0.98 µM
MBC (Enterococcus sp. [37]): 1.95 µM
MIC (Pichia kudriavzevii [38]): 0.98 µM
MIC (Trichosporon asahii [39]): 1.95 µM
MBC (Staphylococcus aureus [40]): 7.81 µM
MIC (Pichia kudriavzevii [41]): 0.98 µM
MIC95 [42]: 0.49 µM
MIC95 (Pseudomonas aeruginosa [43]): 7.81 µM
MBC [44]: 0.49 µM
MFC (Candida albicans [45]): 1.95 µM
MIC95 (Staphylococcus aureus [46]): 0.49 µM
MFC (Nakaseomyces glabratus [47]): 1.95 µM
MBC (Klebsiella pneumoniae [48]): 3.91 µM
MIC (Candida albicans [49]): 1.95 µM
MIC95 [50]: 0.49 µM
MIC (Aspergillus fumigatus [51]): 7.81 µM

— ChEMBL document CHEMBL3352489, “6-Hydroxyquinolinium salts differing in the length of alkyl side-chain: synthesis and antimicrobial activity” (Bioorg Med Chem Lett, 2014)
